Measurements taken from patent US20010044463A1, “Methods for controlling gram negative bacteria in mammals” (priority 1997, published 2001).

Test system: H. pylori ATCC 43504
Assay: Minimum Inhibitory Concentration (MIC) blood agar plate growth inhibition
Assay type: cell-based, Helicobacter pylori
Conditions: Tables IX-XIII
Procedure: Subsequent dilutions were made in ethanol immediately prior to use. […] Subsequent dilutions were made in BHI medium (Brain heart infusion broth, Difco #0037-07-0) immediately prior to use.
Blood agar base (BAB) was prepared containing 1.5% agar and autoclaved. 20 ml samples of autoclaved BAB were poured into 50 mL tubes and placed in a 56° C. water bath.
The mixed media preparation was poured into a petri dished and allowed to solidify.
Prior to inoculation of petri plates, bacteria or cultures were examined for morphology under a phase microscope to confirm motility and physical characteristics, e.g., spiral shaped. The organisms were washed off the plate into PBS (Phosphate buffered saline) (80.0 g NaCl, 2.0 g KCl, 2.4 g KH2PO4 11.5 g Na2HPO4 or 24.4 g Na2HPO4/2H2O per 1 liter deionized water, pH 7.2, sterilized by autoclaving) and diluted into BHI at a concentration of 10^8/ml (O.D. of 0.3 units diluted 1:30). Ten microliters of solution containing 10^6 organisms were spread onto a petri plate and grown under microaerophilic conditions for 3 days unless specified. Control organisms were grown under microaerophilic conditions.
Inhibition of growth was determined by the amount of colonies present within the petri plate. The following factors were used for growth inhibition: ±=0-20 colonies, +=20-50 colonies, ++=50-200 colonies and +++=200+ colonies.

[1] = final drug concentration 0.098 μg/ml
[2] = final drug concentration 0.195 μg/ml
[3] = final drug concentration 0.39 μg/ml
[4] = final drug concentration 0.78 μg/ml
[5] = final drug concentration 1.56 μg/ml
[6] = final drug concentration 3.125 μg/ml
[7] = final drug concentration 6.25 μg/ml
[8] = final drug concentration 12.5 μg/ml
[9] = final drug concentration 25 μg/ml
[10] = final drug concentration 50 μg/ml
[11] = final drug concentration 100 μg/ml

Row | Compound | MIC | growth (amount of colonies present within the petri plate) [1] | growth (amount of colonies present within the petri plate) [2] | growth (amount of colonies present within the petri plate) [3] | growth (amount of colonies present within the petri plate) [4] | growth (amount of colonies present within the petri plate) [5] | growth (amount of colonies present within the petri plate) [6] | growth (amount of colonies present within the petri plate) [7] | growth (amount of colonies present within the petri plate) [8] | growth (amount of colonies present within the petri plate) [9] | growth (amount of colonies present within the petri plate) [10] | growth (amount of colonies present within the petri plate) [11]
1 | 26-O Phenylmonensin [Monensin phenyl carbamate] | MIC = 1.56 μg/ml | (+++) (+++=200+ colonies) | (+++) (+++=200+ colonies) | (++) (++=50-200 colonies) | (++) (++=50-200 colonies) | (+) small colonies (+=20-50 colonies) | (±) few small colonies (±=0-20 colonies) | No growth | No growth | No growth | No growth | No growth
2 | CC[C@@]1([C@@H]2O[C@@H]([C@H]3O[C@@](O)(CO)[C@H](C)C[C@@H]3C)C[C@@H]2C)CC[C@H]([C@]2(C)CC[C@]3(C[C@H](O)[C@@H](C)[C@@H]([C@@H](C)[C@@H](OC)[C@H](C)C(=O)OCc4ccccc4)O3)O2)O1 [Benzyl Monensin, monensin benzyl ester] | MIC = 25 μg/ml | (+++) (+++=200+ colonies) | (+++) (+++=200+ colonies) | (+++) (+++=200+ colonies) | (+++) (+++=200+ colonies) | (+++) (+++=200+ colonies) | (+++) (+++=200+ colonies) | (+++) (+++=200+ colonies) | (++) (++=50-200 colonies) | (±) (±=0-20 colonies) | (±) (±=0-20 colonies) | (±) (±=0-20 colonies)
3 | CCC1(C2OC(C3OC(O)(COC(=O)NC(C)NC(=O)OCC4c5ccccc5-c5ccccc54)C(C)CC3C)CC2C)CCC(C2(C)CCC3(CC(O)C(C)C(C(C)C(OC)C(C)C(=O)O)O3)O2)O1 (stereo not drawn) [Fmoc-Ala-monensin, 26-O-[1-(Fmoc-amino)ethylcarbamoyl] monensin] | MIC = 6.25 μg/ml | (+++) (+++=200+ colonies) | (+++) (+++=200+ colonies) | (+++) (+++=200+ colonies) | (+++) (+++=200+ colonies) | (+++) (+++=200+ colonies) | (+++) (+++=200+ colonies) | (±) (±=0-20 colonies) | No growth | No growth | No growth | No growth
4 | CCC1(C2OC(C3OC(O)(COC(=O)Nc4cccnc4)C(C)CC3C)CC2C)CCC(C2(C)CCC3(CC(O)C(C)C(C(C)C(OC)C(C)C(=O)O)O3)O2)O1 (stereo not drawn) [Monensin pyridyl carbamate, 26-O-(3-pyridylcarbamoyl) monensin] | MIC = 3.12 μg/ml | (+++) (+++=200+ colonies) | (+++) (+++=200+ colonies) | (+++) (+++=200+ colonies) | (+++) (+++=200+ colonies) | (++) (++=50-200 colonies) | (±) (±=0-20 colonies) | No growth | No growth | No growth | No growth | No growth
